Reference: patent US20240287138A1, “CYCLIC PEPTIDES FOR INHIBITING TNF RECEPTOR 1 ACTIVITY” (Merck Sharp & Dohme LLC, priority 2023, published 2024)
pIC50, pKd: −log10 of the molar value. Like-named read-outs stand apart in the source and are kept apart here. Numbered stars: 1 amine (or outer) side, 2 acyl side, 3 side chain; on linkers, the order of the positions; unused ones are H or OH. Bridge positions count the residues as written; N and C are the ends. Square brackets hold non-standard residues; d marks the D form. Peptide text beside a SMILES is read from it. * marks the point of attachment. Trp(βS-Me,7-OMe) = COc1cccc2c([C@H](C)[C@H](N)C(=O)O)c[nH]c12; Phe(4-NHCONH2) = NC(=O)Nc1ccc(C[C@H](N)C(=O)O)cc1; Trp(7-Br) = N[C@@H](Cc1c[nH]c2c(Br)cccc12)C(=O)O; Trp(7-Cl) = N[C@@H](Cc1c[nH]c2c(Cl)cccc12)C(=O)O; X11 = O=C(O)C[C@@H]1C[C@H](C(=O)[*:2])N([*:1])C1; Phe(4-CONH2) = NC(=O)c1ccc(C[C@H](N)C(=O)O)cc1; Phe(4-COOH) = N[C@@H](Cc1ccc(C(=O)O)cc1)C(=O)O; Pip(5R-OH) = O=C(O)[C@@H]1CC[C@@H](O)CN1; X1 = O=C([C@@H]1CC[C@H](N[*:1])C1)[*:2]; Pip(4-aza) = O=C(O)[C@@H]1CNCCN1; hArg = N=C(N)NCCCC[C@H](N)C(=O)O; 4Pal = N[C@@H](Cc1ccncc1)C(=O)O; NMeE = CN[C@@H](CCC(=O)O)C(=O)O; dHyp = O=C(O)[C@H]1C[C@H](O)CN1; hLys = NCCCCC[C@H](N)C(=O)O; αMeS = C[C@](N)(CO)C(=O)O; Carboxymethyl = O=C(O)C*; Nle = CCCC[C@H](N)C(=O)O; Sar = CNCC(=O)O

Tests used:
human TNFR2 ECD protein = biological target: T1, human TNFR2 ECD protein (Homo sapiens, UniProt P20333); test: SPR off-target binding (selectivity) to human TNFR2 ECD
T1 construct: HRV 3C protease cleavage site (C); 6His (C, cleaved yes); made in house; host or cells: Sf21 insect cells (baculovirus), secreted
T1 sequence (P20333 23-257): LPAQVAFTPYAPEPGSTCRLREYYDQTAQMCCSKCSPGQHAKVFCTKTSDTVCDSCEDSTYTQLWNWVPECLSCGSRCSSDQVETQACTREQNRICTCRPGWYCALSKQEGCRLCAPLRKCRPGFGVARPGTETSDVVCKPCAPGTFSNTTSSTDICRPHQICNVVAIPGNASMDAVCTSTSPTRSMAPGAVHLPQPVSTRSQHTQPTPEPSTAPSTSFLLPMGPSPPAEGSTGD
Description: (§1) B. Procedure for Binding Affinity and Selectivity measured by SPR
(§2) Affinity and selectivity for hTNFR1 and TNFR2 was determined using SPR. Human TNFR1 or TNFR2 genes (extracellular domain only) were synthesized with a C-terminal Avi-tag, HRV 3C protease cleavage site followed by a 6His-tag for affinity purification. The final gene product was cloned into pBAC™-1 vector (Millipore Sigma) for expression testing in insect cells. Constructs were transfected into Sf21 cells for baculovirus generation followed by protein expression analysis in Sf21 and Tni cell lines. Large scale expression in Sf21 cells was performed using baculovirus infected insect cells (BIICs) infected at a MOI=2.0 grown for 72 h. Target proteins secreted into the media were harvested via centrifugation and concentrated using diafiltration. TNFR was purified by immobilized metal ion affinity chromatography (IMAC) using a Ni-Sepharose HisTrap™ column (Cytiva™). Isolated TNFR had His tag removed using HRV 3C protease followed by additional purification using Ni-NTA chromatography. Biotinylation was performed on Ni-NTA flow-through fractions concentrated to 45 μM and treated with BirA ligase (1:100, μg/μg ratio) in 50 mM Tris pH 7.5, 150 mM NaCl, 50 μM biotin, 10 mM magnesium acetate, 10 mM ATP at 4° C. for 20 h. Final purification of biotin-TNFR and buffer exchange into 20 mM HEPES pH 7.5, 150 mM NaCl was performed using a HiLoad® Superdex® 200 26/60 column (Cytiva™). Highly purified protein was aliquoted and stored at −80° C.
(§3) The SPR assay uses a Cytiva™ 8K or 8K+ biosensor instrument to measure the kinetics of peptide analytes binding to captured human TNFR1 extracellular domain (ECD) protein; peptide analytes are also evaluated for any off-target binding to human TNFR2 ECD protein in parallel. Recombinant human TNFR1 ECD and human TNFR2 ECD proteins, biotinylated via engineered C-terminal avi-tags, are immobilized to a regenerable streptavidin biosensor chip surface (Cytiva™ Biotin CAPture kit, Series S; cat. #28920234). Peptide analytes binding to immobilized human TNFR1 ECD protein and their subsequent dissociation are conducted in a buffer of 10 mM HEPES pH 7.4, 150 mM NaCl, 3 mM EDTA, 0.05% P20,2% DMSO under laminar flow conditions and measured in response units (RU), which are directly proportional to the accumulated mass on the surface of the biosensor chip; the biosensor chip surface is regenerated via Cytiva™ proprietary methods between the evaluation of each peptide analyte. […] The SPR assay determines the association and dissociation rate constants, kon and koff, for each peptide analyte and, from these values, calculates the binding affinity, […] reported in Table 2.

[1] = biological target: T2, human TNFR1 extracellular domain (ECD) protein (Homo sapiens, UniProt P19438); test: SPR binding affinity to captured human TNFR1 ECD
T2 construct: HRV 3C protease cleavage site (C); 6His (C, cleaved yes); made in house; host or cells: Sf21 insect cells (baculovirus), secreted
T2 sequence (P19438 30-211): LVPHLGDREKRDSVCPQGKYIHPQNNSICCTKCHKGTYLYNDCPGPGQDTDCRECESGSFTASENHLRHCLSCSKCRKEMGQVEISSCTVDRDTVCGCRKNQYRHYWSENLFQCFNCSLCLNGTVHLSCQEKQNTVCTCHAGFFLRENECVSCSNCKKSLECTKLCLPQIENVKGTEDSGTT
Description: as §1, §2, §3

[2] = biological target: T3, TNFα-induced NF-κB signal transduction pathway (TNFR1 signaling) in THP-1 cells (Homo sapiens, UniProt P19438); test: THP-1 Lucia NF-κB reporter cell assay, inhibition of TNFα-induced NF-κB signaling; format: cell-based; conditions: THP-1 NF-κB Lucia reporter cells, 10 ng/mL TNFα, 16-18 h, secreted luciferase; read-out: THP-1 IC50
T3 sequence (P19438 30-455): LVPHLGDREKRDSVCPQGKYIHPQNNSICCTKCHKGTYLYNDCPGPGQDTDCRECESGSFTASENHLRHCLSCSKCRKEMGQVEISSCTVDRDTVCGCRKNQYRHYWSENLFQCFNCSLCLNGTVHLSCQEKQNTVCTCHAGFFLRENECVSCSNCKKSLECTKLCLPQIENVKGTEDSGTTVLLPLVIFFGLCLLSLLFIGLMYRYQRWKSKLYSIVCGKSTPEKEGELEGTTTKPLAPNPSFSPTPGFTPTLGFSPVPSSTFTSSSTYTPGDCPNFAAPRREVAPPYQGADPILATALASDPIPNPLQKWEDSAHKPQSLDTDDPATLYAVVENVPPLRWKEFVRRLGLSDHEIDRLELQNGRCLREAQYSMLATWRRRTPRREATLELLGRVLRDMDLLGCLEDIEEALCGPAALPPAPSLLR
How it was run: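 THP-1 Lucia NF-κB cells, 20k/well, no selection antibiotics; peptide pre-inc 1 h 37 °C; + recombinant human TNFα 10 ng/mL final; o.n.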

COc1cccc2c([C@H](C)[C@@H]3NC(=O)CN(C)C(=O)[C@H](Cc4ccc(O)cc4)NC(=O)[C@H](Cc4ccc(C(=O)O)cc4)NC(=O)[C@](C)(CO)NC(=O)[C@H](Cc4c[nH]c5c(Cl)cccc45)NC(=O)[C@H](Cc4ccncc4)NC(=O)[C@H](CC(N)=O)NC(=O)[C@H](CCC(=O)O)N(C)C(=O)[C@H](Cc4c[nH]c5ccccc45)NC(=O)[C@@H]4CC[C@@H](O)CN4C(=O)[C@H](Cc4ccncc4)NC(=O)[C@H](CCCCCN)NC(=O)[C@@H]4CC[C@@H](C4)NC3=O)c[nH]c12 [SEQ ID NO. 131] (cyclo([4Pal][Trp(7-Cl)][αMeS][Phe(4-COOH)]Y[Sar][Trp(βS-Me,7-OMe)][X1][hLys][4Pal][Pip(5R-OH)]W[NMeE]N))
pKd (human TNFR2 ECD protein): < 6.00
pKd [1]: 10.22
pIC50 [2]: 9.15

COc1cccc2c([C@H](C)[C@@H]3NC(=O)CN(C)C(=O)[C@H](Cc4ccc(O)cc4)NC(=O)[C@H](Cc4ccc(C(=O)O)cc4)NC(=O)[C@](C)(CO)NC(=O)[C@H](Cc4c[nH]c5c(Cl)cccc45)NC(=O)[C@H](Cc4ccncc4)NC(=O)[C@H](CC(N)=O)NC(=O)[C@H](CCC(=O)O)N(C)C(=O)[C@H](Cc4c[nH]c5ccccc45)NC(=O)[C@@H]4CNCCN4C(=O)[C@H](Cc4ccncc4)NC(=O)[C@H](CCCCNC(=N)N)NC(=O)[C@@H]4CC[C@@H](C4)NC3=O)c[nH]c12 [SEQ ID NO. 35] (cyclo([4Pal][Trp(7-Cl)][αMeS][Phe(4-COOH)]Y[Sar][Trp(βS-Me,7-OMe)][X1][hArg][4Pal][Pip(4-aza)]W[NMeE]N))
pKd (human TNFR2 ECD protein): < 6.00
pKd [1]: 9.96
pIC50 [2]: 9.00

CCCC[C@@H]1NC(=O)[C@@H]2CC[C@@H](C2)NC(=O)[C@H]([C@@H](C)c2c[nH]c3c(OC)cccc23)NC(=O)CN(C)C(=O)[C@H](Cc2ccc(O)cc2)NC(=O)[C@H](Cc2ccc(C(=O)O)cc2)NC(=O)[C@](C)(CO)NC(=O)[C@H](Cc2c[nH]c3c(Cl)cccc23)NC(=O)[C@H](Cc2ccncc2)NC(=O)[C@H](CC(N)=O)NC(=O)[C@H](CCC(=O)O)N(C)C(=O)[C@H](Cc2c[nH]c3ccccc23)NC(=O)[C@@H]2CNCCN2C(=O)[C@H](Cc2ccncc2)NC1=O [SEQ ID NO. 5] (cyclo([4Pal][Trp(7-Cl)][αMeS][Phe(4-COOH)]Y[Sar][Trp(βS-Me,7-OMe)][X1][Nle][4Pal][Pip(4-aza)]W[NMeE]N))
pKd (human TNFR2 ECD protein; biotinylated human TNFR2 ECD on streptavidin chip, read-out: SPR hTNFR2 KD): < 6.00
pKd ([1]; biotinylated human TNFR1 ECD on streptavidin chip, from kon and koff, read-out: SPR hTNFR1 KD): 10.00
pIC50 [2]: 8.92

CCCC[C@@H]1NC(=O)CSC[C@@H](C(N)=O)NC(=O)[C@H]([C@@H](C)c2c[nH]c3c(OC)cccc23)NC(=O)CN(C)C(=O)[C@H](Cc2ccc(O)cc2)NC(=O)[C@H](Cc2ccc(C(N)=O)cc2)NC(=O)[C@](C)(CO)NC(=O)[C@H](Cc2c[nH]c3c(Br)cccc23)NC(=O)[C@H](Cc2ccncc2)NC(=O)[C@H](CC(N)=O)NC(=O)[C@H](CCC(=O)O)N(C)C(=O)[C@H](Cc2c[nH]c3ccccc23)NC(=O)[C@@H]2CC[C@@H](O)CN2C(=O)[C@H](Cc2ccncc2)NC1=O [SEQ ID NO. 39] ({CH2CO}-[Nle][4Pal][Pip(5R-OH)]W[NMeE]N[4Pal][Trp(7-Br)][αMeS][Phe(4-CONH2)]Y[Sar][Trp(βS-Me,7-OMe)]C-NH2; thioether N-14)
pKd (human TNFR2 ECD protein): < 6.00
pKd [1]: 10.30
pIC50 [2]: 9.05

CCCC[C@@H]1NC(=O)[C@@H]2CC[C@@H](C2)NC(=O)[C@H]([C@@H](C)c2c[nH]c3c(OC)cccc23)NC(=O)CN(C)C(=O)[C@H](Cc2ccc(O)cc2)NC(=O)[C@H](Cc2ccc(NC(N)=O)cc2)NC(=O)[C@](C)(CO)NC(=O)[C@H](Cc2c[nH]c3c(Cl)cccc23)NC(=O)[C@H](Cc2ccncc2)NC(=O)[C@H](CC(N)=O)NC(=O)[C@H](CCC(=O)O)N(C)C(=O)[C@H](Cc2c[nH]c3ccccc23)NC(=O)[C@@H]2CNCCN2C(=O)[C@H](Cc2ccncc2)NC1=O [SEQ ID NO. 127] (cyclo([4Pal][Trp(7-Cl)][αMeS][Phe(4-NHCONH2)]Y[Sar][Trp(βS-Me,7-OMe)][X1][Nle][4Pal][Pip(4-aza)]W[NMeE]N))
pKd (human TNFR2 ECD protein): < 6.00
pKd [1]: 9.74
pIC50 [2]: 9.10

CCCC[C@@H]1NC(=O)[C@@H]2CC[C@@H](C2)NC(=O)[C@H]([C@@H](C)c2c[nH]c3c(OC)cccc23)NC(=O)CN(C)C(=O)[C@H](Cc2ccc(O)cc2)NC(=O)[C@H](Cc2ccc(C(N)=O)cc2)NC(=O)[C@](C)(CO)NC(=O)[C@H](Cc2c[nH]c3c(Cl)cccc23)NC(=O)[C@H](Cc2ccc(C(=O)O)cc2)NC(=O)[C@H](CC(N)=O)NC(=O)[C@H]2C[C@H](OCC(=O)O)CN2C(=O)[C@H](Cc2c[nH]c3ccccc23)NC(=O)[C@@H]2CNCCN2C(=O)[C@H](Cc2ccncc2)NC1=O [SEQ ID NO. 95] (cyclo([4Pal][Pip(4-aza)]W[dHyp](Carboxymethyl)N[Phe(4-COOH)][Trp(7-Cl)][αMeS][Phe(4-CONH2)]Y[Sar][Trp(βS-Me,7-OMe)][X1][Nle]))
pKd (human TNFR2 ECD protein): < 6.00
pKd [1]: 9.70
pIC50 [2]: 9.15

CCCC[C@@H]1NC(=O)[C@@H]2CC[C@@H](C2)NC(=O)[C@H]([C@@H](C)c2c[nH]c3c(OC)cccc23)NC(=O)CN(C)C(=O)[C@H](Cc2ccc(C(=O)O)cc2)NC(=O)[C@H](Cc2ccc(C(N)=O)cc2)NC(=O)[C@](C)(CO)NC(=O)[C@H](Cc2c[nH]c3c(Cl)cccc23)NC(=O)[C@H](Cc2ccc(C(=O)O)cc2)NC(=O)[C@H](CC(N)=O)NC(=O)[C@H]2C[C@@H](CC(=O)O)CN2C(=O)[C@H](Cc2c[nH]c3ccccc23)NC(=O)[C@@H]2CC[C@@H](O)CN2C(=O)[C@H](Cc2ccncc2)NC1=O [SEQ ID NO. 132] (cyclo([4Pal][Pip(5R-OH)]W[X11]N[Phe(4-COOH)][Trp(7-Cl)][αMeS][Phe(4-CONH2)][Phe(4-COOH)][Sar][Trp(βS-Me,7-OMe)][X1][Nle]))
pKd (human TNFR2 ECD protein): < 6.00
pKd [1]: 10.10
pIC50 [2]: 9.15
